Test results taken from ChEMBL document CHEMBL1201862, “PubChem BioAssay data set” (2004).
Activity calls are given as the source filed them.

Key:
Exodeoxyribonuclease V = Exodeoxyribonuclease V (Escherichia coli (strain K12), UniProt P04993+P07648+P08394); experiment: RecBCD inhibition via phage-restricted bacterial growth – absorbance, V66 E. coli, mutant T4 phage, counter-screen for AddAB inhibitor project, dose response (AID 492957); type: functional, cell-based, Escherichia coli str. K-12 substr. MG1655
Sequence of Exodeoxyribonuclease V (P04993 whole entry): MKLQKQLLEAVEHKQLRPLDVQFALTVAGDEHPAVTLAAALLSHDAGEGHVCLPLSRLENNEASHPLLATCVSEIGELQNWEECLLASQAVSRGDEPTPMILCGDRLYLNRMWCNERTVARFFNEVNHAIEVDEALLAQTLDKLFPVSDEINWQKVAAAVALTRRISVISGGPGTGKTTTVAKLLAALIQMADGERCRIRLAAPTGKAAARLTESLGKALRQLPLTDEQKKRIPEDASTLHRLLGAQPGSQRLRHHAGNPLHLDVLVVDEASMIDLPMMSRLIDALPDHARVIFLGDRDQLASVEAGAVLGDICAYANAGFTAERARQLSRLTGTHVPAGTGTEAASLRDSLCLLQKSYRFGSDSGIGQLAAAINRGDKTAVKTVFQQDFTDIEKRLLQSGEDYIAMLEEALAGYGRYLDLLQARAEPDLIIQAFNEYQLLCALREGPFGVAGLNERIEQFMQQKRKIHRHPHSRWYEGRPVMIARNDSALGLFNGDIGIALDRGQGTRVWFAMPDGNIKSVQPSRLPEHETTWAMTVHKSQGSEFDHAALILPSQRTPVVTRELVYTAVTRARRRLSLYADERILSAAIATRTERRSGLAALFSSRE
Sequence of Exodeoxyribonuclease V (P07648 whole entry): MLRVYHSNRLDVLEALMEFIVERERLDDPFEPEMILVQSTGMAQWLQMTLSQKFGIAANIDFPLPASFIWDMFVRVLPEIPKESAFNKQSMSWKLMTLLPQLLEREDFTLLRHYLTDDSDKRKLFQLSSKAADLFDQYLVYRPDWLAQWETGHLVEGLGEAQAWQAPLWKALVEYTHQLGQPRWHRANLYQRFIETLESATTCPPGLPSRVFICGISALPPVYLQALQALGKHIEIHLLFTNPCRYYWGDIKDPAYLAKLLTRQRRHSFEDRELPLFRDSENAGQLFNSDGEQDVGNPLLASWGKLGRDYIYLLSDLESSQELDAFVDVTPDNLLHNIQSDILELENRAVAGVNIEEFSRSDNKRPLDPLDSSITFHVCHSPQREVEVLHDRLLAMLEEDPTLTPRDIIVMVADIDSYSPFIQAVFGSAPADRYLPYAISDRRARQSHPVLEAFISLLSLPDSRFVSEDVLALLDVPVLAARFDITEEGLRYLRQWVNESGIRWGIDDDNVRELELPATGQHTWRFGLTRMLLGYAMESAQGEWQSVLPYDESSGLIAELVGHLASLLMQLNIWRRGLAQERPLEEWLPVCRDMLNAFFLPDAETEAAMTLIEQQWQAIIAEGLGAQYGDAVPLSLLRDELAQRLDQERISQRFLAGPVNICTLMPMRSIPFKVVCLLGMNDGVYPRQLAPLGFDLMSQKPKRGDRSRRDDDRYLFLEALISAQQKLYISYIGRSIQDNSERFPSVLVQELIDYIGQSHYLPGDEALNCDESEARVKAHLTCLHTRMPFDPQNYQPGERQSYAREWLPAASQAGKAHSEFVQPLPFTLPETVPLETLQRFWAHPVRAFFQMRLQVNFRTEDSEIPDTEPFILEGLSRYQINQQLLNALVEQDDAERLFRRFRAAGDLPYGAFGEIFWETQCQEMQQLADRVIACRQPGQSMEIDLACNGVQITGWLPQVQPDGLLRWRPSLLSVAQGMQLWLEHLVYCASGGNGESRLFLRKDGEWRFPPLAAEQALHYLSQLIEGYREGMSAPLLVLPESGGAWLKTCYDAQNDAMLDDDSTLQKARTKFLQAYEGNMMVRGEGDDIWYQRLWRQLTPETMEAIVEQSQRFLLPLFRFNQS
Sequence of Exodeoxyribonuclease V (P08394 whole entry): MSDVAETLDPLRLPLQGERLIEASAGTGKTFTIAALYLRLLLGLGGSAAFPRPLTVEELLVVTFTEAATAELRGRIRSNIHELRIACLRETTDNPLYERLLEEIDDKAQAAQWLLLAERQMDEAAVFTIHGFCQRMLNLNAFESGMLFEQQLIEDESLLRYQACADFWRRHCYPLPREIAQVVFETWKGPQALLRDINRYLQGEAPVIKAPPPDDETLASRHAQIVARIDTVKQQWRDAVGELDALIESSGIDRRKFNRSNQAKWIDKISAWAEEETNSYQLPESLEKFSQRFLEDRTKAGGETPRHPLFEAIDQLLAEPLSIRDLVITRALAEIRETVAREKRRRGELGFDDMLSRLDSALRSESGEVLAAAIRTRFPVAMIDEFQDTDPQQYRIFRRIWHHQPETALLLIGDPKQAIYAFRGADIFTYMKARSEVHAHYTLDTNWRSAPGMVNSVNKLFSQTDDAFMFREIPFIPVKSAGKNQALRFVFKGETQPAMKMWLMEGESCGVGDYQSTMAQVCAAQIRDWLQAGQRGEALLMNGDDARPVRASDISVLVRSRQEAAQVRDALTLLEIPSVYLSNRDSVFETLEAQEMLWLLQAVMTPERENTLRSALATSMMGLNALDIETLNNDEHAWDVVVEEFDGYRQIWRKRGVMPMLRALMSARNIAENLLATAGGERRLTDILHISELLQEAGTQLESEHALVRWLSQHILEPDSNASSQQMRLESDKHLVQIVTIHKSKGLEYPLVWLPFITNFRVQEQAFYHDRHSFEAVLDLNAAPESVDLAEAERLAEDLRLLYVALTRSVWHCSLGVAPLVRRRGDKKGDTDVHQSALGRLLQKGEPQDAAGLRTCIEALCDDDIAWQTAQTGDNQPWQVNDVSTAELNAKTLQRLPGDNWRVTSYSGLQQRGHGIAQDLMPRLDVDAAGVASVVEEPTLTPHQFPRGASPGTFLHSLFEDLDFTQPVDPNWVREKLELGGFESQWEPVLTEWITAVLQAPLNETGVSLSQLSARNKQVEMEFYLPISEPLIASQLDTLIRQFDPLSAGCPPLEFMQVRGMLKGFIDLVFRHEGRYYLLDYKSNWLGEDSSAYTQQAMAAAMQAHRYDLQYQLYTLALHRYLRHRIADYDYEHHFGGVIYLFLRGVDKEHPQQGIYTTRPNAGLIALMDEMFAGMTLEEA

[1] = Counterscreen for AddAB inhibitors: absorbance-based bacterial cell-based high throughput dose response assay for inhibitors of bacterial viability. [Related pubchem assays (depositor defined):AID435030, AID449728, AID449731, AID488942, AID488955, AID488956]; type: functional
[2] = Trypanosoma cruzi growth suppression in host cells – NIH3T3 host cells, beta-gal luminescence, confirmation (AID 2044); type: functional, cell-based;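 also: intracellular parasites grown in NIH/3T3 mouse fibroblasts as host cells; luminescent beta-galactosidase reporter signal from transgenic T. cruzi replicating inside host cells; inhibitors lower the luminescence signal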
Streptococcus = experiment: GAS UMAA2166 growth inhibition – luminescence, BacTiterGlo, counter-screen for streptokinase expression inhibitor project, dose response (AID 1915); type: functional, organism-based;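 also: potency for reduction of bacterial viability or growth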
H4 = experiment: Luminescence Cell-Based Dose Response HTS to Identify Activators of 5'UTR Stem-Loop Driven Prion Protein mRNA Translation in H4 Neuroglioblastoma Cells. [Related pubchem assays: 1829 (Project Summary), 1814 (Primary HTS)]; type: functional; settings: Homo sapiens
[3] = system: Streptococcus sp. 'group A'; experiment: Streptococcus pyogenes SK(-)GAS viability under kanamycin – luminescence, BacTiterGlo, confirmation, counter-screen for streptokinase expression inhibitor project, dose response (AID 1900); type: functional, organism-based
[4] = Luminescence Cell-Based Dose Response HTS to Identify Activators of Luciferase Translation or Activity in H4 […] Cells. [Related pubchem assays: 1829 (Project Summary), 1814 (Primary HTS)]; type: functional
[5] = NIH3T3 cell viability loss – ATP luminescence, mouse fibroblasts, counter-screen, dose response (AID 2010); type: functional, cell-based;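 also: cells exposed to compound for about 90 hours before reading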
[6] = Luminescence Cell-Based Dose Confirmation HTS to Identify Activators of 5'UTR Stem-Loop Driven Alpha-Synuclein mRNA Translation in H4 Neuroglioblastoma Cells. [Related pubchem assays: 1829 (Project Summary), 1814 (Primary HTS)]; type: functional
HEK293 [7] = experiment: cells; settings: Homo sapiens
HEK293 [8] = experiment: cells; settings: Homo sapiens; remark: listed apart in the source
[9] = molecular target: T1, Alkaline phosphatase, tissue-nonspecific isozyme (Homo sapiens, UniProt P05186); experiment: potency against alkaline phosphatase TNAP – biochemical, luminescent, dose response, SAR follow-up (AID 1056)
T1 sequence (P05186 whole entry): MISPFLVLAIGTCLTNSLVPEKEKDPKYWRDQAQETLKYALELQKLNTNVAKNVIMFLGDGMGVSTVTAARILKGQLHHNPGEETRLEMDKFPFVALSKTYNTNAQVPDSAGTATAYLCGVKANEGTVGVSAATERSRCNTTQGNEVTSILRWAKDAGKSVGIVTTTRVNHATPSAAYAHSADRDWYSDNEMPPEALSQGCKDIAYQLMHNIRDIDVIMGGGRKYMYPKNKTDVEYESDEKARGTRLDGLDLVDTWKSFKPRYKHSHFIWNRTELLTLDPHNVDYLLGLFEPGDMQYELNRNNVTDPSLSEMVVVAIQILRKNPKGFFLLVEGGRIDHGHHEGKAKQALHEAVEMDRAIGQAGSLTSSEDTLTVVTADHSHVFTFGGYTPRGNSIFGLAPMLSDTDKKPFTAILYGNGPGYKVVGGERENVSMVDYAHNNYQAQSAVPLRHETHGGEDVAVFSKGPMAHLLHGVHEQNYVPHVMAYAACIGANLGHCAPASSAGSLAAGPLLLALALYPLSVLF

[10] = molecular target: Alkaline phosphatase, placental type (Homo sapiens, UniProt P05187); experiment: human placental alkaline phosphatase inhibition – biochemical, luminescence, confirmation (AID 1512); type: functional
Sequence of Alkaline phosphatase, placental type (P05187 whole entry): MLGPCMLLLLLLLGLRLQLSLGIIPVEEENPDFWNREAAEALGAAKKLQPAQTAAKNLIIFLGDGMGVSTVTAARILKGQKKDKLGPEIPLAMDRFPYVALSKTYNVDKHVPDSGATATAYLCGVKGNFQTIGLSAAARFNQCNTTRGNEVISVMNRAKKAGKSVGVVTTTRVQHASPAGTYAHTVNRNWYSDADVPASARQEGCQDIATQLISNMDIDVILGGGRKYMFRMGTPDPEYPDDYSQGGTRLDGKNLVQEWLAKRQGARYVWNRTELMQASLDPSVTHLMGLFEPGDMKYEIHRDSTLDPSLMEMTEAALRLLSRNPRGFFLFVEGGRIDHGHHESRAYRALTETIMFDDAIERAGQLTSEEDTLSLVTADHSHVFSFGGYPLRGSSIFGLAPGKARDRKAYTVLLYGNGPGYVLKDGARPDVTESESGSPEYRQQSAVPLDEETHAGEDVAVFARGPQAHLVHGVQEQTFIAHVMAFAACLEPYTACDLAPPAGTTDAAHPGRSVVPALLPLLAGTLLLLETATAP

[11] = (§1) Counterscreen for antagonists of the orexin 1 receptor (OX1R; HCRTR1): Fluorescence-based cell-based high throughput dose response assay to identify antagonists of the parental CHO cell line. [Related pubchem assays (depositor defined):AID434989, AID435008, AID463079, AID485270, AID492963, AID492964, AID492965, AID493232, AID504699, AID504701]; type: functional
[12] = molecular target: T2, Orexin/Hypocretin receptor type 1 (Homo sapiens, UniProt O43613); experiment: (§2) Fluorescence-based cell-based high throughput dose response assay for antagonists of the orexin 1 receptor (OX1R; HCRTR1). [Related pubchem assays (depositor defined):AID434989, AID435008, AID463079, AID485270, AID492963, AID492964, AID492965, AID493232, AID504717, AID504718]; type: functional
T2 sequence (O43613 whole entry): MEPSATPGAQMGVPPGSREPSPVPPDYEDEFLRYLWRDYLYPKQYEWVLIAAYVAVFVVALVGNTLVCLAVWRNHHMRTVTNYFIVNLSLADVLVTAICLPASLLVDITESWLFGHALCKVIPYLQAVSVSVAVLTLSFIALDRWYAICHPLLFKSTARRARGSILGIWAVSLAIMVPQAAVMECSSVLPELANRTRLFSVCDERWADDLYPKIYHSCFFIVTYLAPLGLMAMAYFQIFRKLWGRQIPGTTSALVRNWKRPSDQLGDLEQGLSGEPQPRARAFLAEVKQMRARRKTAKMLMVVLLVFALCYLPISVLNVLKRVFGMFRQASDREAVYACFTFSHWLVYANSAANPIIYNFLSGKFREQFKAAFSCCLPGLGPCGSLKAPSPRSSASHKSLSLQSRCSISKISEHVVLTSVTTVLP

CHO-K1 = experiment: as §1, with “Homogeneous time resolved fluorescence (HTRF)-based” for “Fluorescence-based”, “cell-based” for “cell-based high throughput”, “CHO-K1” for “CHO”; type: functional; settings: Cricetulus griseus
[13] = molecular target: T2, Orexin/Hypocretin receptor type 1; experiment: as §2, with “Homogeneous Time Resolved Fluorescence (HTRF)-based” for “Fluorescence-based”; type: functional
BJ [14] = experiment: growth inhibition of engineered Ras-driven BJ cells – cell-based, alamar blue fluorescence, cherrypicked samples, dose response (AID 2631); type: functional; settings: Homo sapiens;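 also: confirmatory dose-response assay in RAS-dependent BJ fibroblasts engineered with TERT, LT and ST, with cytotoxicity read by fluorescence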
INS1 = experiment: INS-1E survival protection against cytokine death – cell-based, luminescence, retest, dose response (AID 449756); type: functional; settings: Rattus norvegicus;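 also: cell death triggered by IL-1 beta plus TNF-alpha plus IFN-gamma mixture; protective hits raise ATP signal compared with cytokine alone wells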
BJ [15] = experiment: BJ-TERT fibroblast viability loss – cell-based, RAS-independent, luminescence, dose response (AID 1933); type: functional; settings: Homo sapiens
[16] = DRD fibroblast viability loss – cell-based, non-viral oncogenic, luminescence, dose response (AID 1934); type: functional; settings: Homo sapiens
BJ [17] = experiment: cells; type: functional, cell-based; settings: Homo sapiens
cells [18] = type: functional, cell-based
BJ [19] = experiment: BJ-TERT-LT-ST fibroblast viability loss – cell-based, RAS-independent, luminescence, dose response (AID 1935); type: functional; settings: Homo sapiens;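 also: BJ fibroblasts immortalized with TERT plus LT and ST oncogenes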
[20] = microbe, parasite or virus in culture; type: functional; settings: Mycobacterium tuberculosis
cells [21] = type: functional, cell-based; remark: listed apart in the source

## CCOC(=O)C1=C(C)N=C2C(=C(O)c3ccccc32)C1c1ccc([N+](=O)[O-])o1 (stereo not drawn)
Exodeoxyribonuclease V
  IC50: > 119 µM (inactive)
[1]
  IC50: > 119 µM (inactive)
[2]
  EC50: 1.43 µM (active)
Streptococcus
  EC50: 29.9 µM (active)
H4
  EC50: > 120 µM (not active)
[3]
  EC50: 2.81 µM (active)
[4]
  EC50: > 120 µM (not active)
[5]
  EC50: > 60 µM (not active)
[6]
  EC50: > 120 µM (not active)

## CC(C)Cc1cc(-c2ccco2)c(C#N)c(N)n1
HEK293 [7]
  EC50: > 59.6 µM (inactive)
HEK293 [8]
  EC50: > 59.6 µM (inactive)

## C=CCn1c(SCC(=O)c2ccc(O)c(O)c2)nnc1-c1ccc(C(C)(C)C)cc1
[9]
  IC50: > 100 µM (inactive)
[10]
  IC50: 97.5 µM (active)

## COC(=O)C(C(C)=O)C1=C/C(=N\S(=O)(=O)c2ccc(C)cc2)c2ccccc2C1=O (stereo not drawn)
[11]
  IC50: > 49.8 µM (inactive)
[12]
  IC50: 2.83 µM (active)
CHO-K1
  IC50: 53.7 µM (inactive)
[13]
  IC50: 414 nM (active)

## COc1ccc(N/N=C(/N=Nc2nc(C)cc(O)n2)c2ccccc2)cc1
Exodeoxyribonuclease V
  IC50: > 119 µM (inactive)
BJ [14]
  EC50: 615 nM (active)
INS1
  AC50: < 195 nM (active)
[1]
  IC50: > 119 µM (inactive)
BJ [15]
  EC50: 4.09 µM (active)
[16]
  EC50: 5.72 µM (active)
BJ [17]
  EC50: 3.68 µM (active)
Cells [18]
  EC50: 5.67 µM (active)
BJ [19]
  EC50: 4.21 µM (active)
[20]
  CC50: 6.39 µM (active)
Cells [21]
  EC50: 3.44 µM (active)
